pIC50: −log10 of the molar value.
Legend:
in vivo [1] = details: ICR, mouse, po, 50 mg/kg
[2] = Plasma protein binding in mouse at 2 uM preincubated for 1 hr by balanced dialysis based LC-MS/MS analysis
[3] = Toxicity in BALB/c nude mouse xenografted with human MIA PaCa-21 cells expressing KRAS G12C mutant assessed as weight loss at 50 mg/kg, po qd measured on day 21; details: in vivo
[4] = Toxicity in BALB/c nude mouse xenografted with human MIA PaCa-21 cells expressing KRAS G12C mutant assessed as animal death at 50 mg/kg, po qd measured on day 21; details: in vivo, 504 h
[5] = Half life in ICR mouse at 50 mg/kg, po measured up to 24 hrs by LC-MS/MS analysis; details: in vivo
[6] = Plasma protein binding in monkey at 2 uM preincubated for 1 hr by balanced dialysis based LC-MS/MS analysis; details: rhesus monkey
in vivo [7] = details: ICR, mouse, po, 50 mg/kg; remark: listed apart in the source
[8] = Elimination rate constant in ICR mouse at 50 mg/kg, po measured up to 24 hrs by LC-MS/MS analysis; details: in vivo
[9] = Plasma protein binding in rat at 2 uM preincubated for 1 hr by balanced dialysis based LC-MS/MS analysis
[10] = Plasma protein binding in dog at 2 uM preincubated for 1 hr by balanced dialysis based LC-MS/MS analysis
[11] = MRT in ICR mouse at 50 mg/kg, po measured up to 24 hrs by LC-MS/MS analysis; details: in vivo
in vivo [12] = details: ICR, mouse, po, 50 mg/kg; remark: listed apart in the source
[13] = target: T1, Son of sevenless homolog 1 (Homo sapiens, UniProt Q07889); experiment: Inhibition of SOS1 in human DLD-1 cells assessed as reduction in ERK phosphorylation incubated for 1 hr by fluorescence assay; type: cell-based
T1 sequence (Q07889 whole entry): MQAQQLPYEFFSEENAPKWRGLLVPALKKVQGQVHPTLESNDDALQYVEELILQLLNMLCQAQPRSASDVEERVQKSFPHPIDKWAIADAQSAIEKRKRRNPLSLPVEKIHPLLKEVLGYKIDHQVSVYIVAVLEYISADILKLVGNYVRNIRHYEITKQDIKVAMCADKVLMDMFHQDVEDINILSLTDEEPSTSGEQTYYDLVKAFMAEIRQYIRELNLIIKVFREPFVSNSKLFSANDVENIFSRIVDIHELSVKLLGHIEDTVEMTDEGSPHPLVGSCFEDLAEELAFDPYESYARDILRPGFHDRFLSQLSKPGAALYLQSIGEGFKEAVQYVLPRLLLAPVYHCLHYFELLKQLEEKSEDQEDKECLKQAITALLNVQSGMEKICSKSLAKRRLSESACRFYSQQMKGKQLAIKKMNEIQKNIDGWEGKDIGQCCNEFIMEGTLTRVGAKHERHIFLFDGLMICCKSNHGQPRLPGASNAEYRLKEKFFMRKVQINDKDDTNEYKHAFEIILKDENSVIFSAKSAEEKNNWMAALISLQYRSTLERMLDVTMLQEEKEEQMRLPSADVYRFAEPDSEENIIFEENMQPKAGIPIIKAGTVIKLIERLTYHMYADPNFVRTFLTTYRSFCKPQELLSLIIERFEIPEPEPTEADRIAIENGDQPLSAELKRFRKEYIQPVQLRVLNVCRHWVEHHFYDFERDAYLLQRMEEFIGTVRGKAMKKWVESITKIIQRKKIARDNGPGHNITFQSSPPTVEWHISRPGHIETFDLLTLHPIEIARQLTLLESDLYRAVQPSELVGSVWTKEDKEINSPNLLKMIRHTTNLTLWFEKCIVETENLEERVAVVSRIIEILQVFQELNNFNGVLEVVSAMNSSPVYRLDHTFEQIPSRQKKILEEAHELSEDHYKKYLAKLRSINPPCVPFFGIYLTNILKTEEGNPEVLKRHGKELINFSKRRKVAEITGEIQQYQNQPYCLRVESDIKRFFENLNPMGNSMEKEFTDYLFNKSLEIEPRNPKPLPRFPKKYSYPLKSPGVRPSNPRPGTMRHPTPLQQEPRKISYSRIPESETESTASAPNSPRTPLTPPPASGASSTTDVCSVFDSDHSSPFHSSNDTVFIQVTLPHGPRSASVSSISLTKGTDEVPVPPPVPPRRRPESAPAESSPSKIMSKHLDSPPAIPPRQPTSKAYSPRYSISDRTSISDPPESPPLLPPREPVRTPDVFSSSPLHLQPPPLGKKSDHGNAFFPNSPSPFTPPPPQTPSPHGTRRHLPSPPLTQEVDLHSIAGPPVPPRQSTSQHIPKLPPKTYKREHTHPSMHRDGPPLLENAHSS

SOS1-KRAS = SOS1-KRAS (Homo sapiens, UniProt Q07889); experiment: Inhibition of N-terminal His6-tagged human recombinant SOS1(564 to 1049 residues)/human recombinant KRAS G12C mutant incubated for 60 mins by HTRF assay

In the case of Cc1nc(N[C@H](C)c2cccc(C(F)F)c2F)c2cc3c(cc2n1)OCC[C@H]1CN(C(=O)[C@@H]2CCOC2)CCN31, the AUC at 24 h (in vivo [1]) was 7490 ng·h/mL, the fraction unbound at 1 h, 2 µM [2] was 0.006 and the Activity [3] was “Non-Toxic”. The Activity [4] was “Non-Toxic”, the half-life at 24 h [5] was 2.29 h and the fraction unbound at 1 h, 2 µM [6] was 0.001. For the same compound, the Cmax at 24 h (in vivo [7]) was 1450 ng/mL, the k el at 24 h [8] was 8.39e-05 s⁻¹ and the fraction unbound at 1 h, 2 µM [9] was 0.001. For the same compound, the fraction unbound at 1 h, 2 µM [10] was 0.001, the MRT at 24 h [11] was 2.89 h and the Tmax at 24 h (in vivo [12]) was 0.417 h.

With COCCN1CCN2c3cc4c(N[C@H](C)c5cccc(C(F)F)c5F)nc(C)nc4cc3OCC[C@H]2C1 the AUC at 24 h (in vivo [1]) was 5420 ng·h/mL, the half-life at 24 h [5] was 7.23 h and the Cmax at 24 h (in vivo [7]) was 433 ng/mL. It also gave a k el at 24 h [8] of 2.64e-05 s⁻¹, an MRT at 24 h [11] of 8.31 h and a Tmax at 24 h (in vivo [12]) of 5.67 h.

In the case of Cc1nc(N[C@H](C)c2cccc(C(F)F)c2F)c2cc3c(cc2n1)OC[C@H]1CN(C(=O)C2(C#N)CC2)CCN31, the pIC50 [13] was 7.89 and the pIC50 (SOS1-KRAS) was 8.08.

With Cc1nc(N[C@H](C)c2cccc(C(F)F)c2F)c2cc3c(cc2n1)OCC[C@H]1CN(c2ccnn2C)CCN31 the AUC at 24 h (in vivo [1]) was 48800 ng·h/mL, the fraction unbound at 1 h, 2 µM [2] was 0.079 and the Activity [3] was “Non-Toxic”. The Activity [4] was “Non-Toxic”, the half-life at 24 h [5] was 2.61 h and the fraction unbound at 1 h, 2 µM [6] was 0.015. For the same compound, the Cmax at 24 h (in vivo [7]) was 4690 ng/mL, the k el at 24 h [8] was 7.36e-05 s⁻¹ and the fraction unbound at 1 h, 2 µM [9] was 0.107. It also gave a fraction unbound at 1 h, 2 µM [10] of 0.01, an MRT at 24 h [11] of 4.47 h and a Tmax at 24 h (in vivo [12]) of 0.33 h.

In the case of Cc1nc(N[C@H](C)c2cccc(C(F)F)c2F)c2cc3c(cc2n1)OCC[C@H]1CN(C(=O)c2cccnc2)CCN31, the AUC at 24 h (in vivo [1]) was 3180 ng·h/mL, the half-life at 24 h [5] was 1.47 h and the Cmax at 24 h (in vivo [7]) was 1580 ng/mL. For the same compound, the k el at 24 h [8] was 0.000135 s⁻¹, the MRT at 24 h [11] was 1.78 h and the Tmax at 24 h (in vivo [12]) was 0.333 h.

Work on Cc1nc(N[C@H](C)c2cccc(C(F)F)c2F)c2cc3c(cc2n1)OCC[C@H]1CN(CC2COC2)CCN31 yielded an AUC at 24 h (in vivo [1]) of 10700 ng·h/mL, a half-life at 24 h [5] of 7.39 h and a Cmax at 24 h (in vivo [7]) of 645 ng/mL. For the same compound, the k el at 24 h [8] was 2.61e-05 s⁻¹, the MRT at 24 h [11] was 7.64 h and the Tmax at 24 h (in vivo [12]) was 3 h.

Cc1nc(N[C@H](C)c2cccc(C(F)F)c2F)c2cc3c(cc2n1)OCC[C@H]1CN(C)CCN31 showed an AUC at 24 h (in vivo [1]) of 3250 ng·h/mL, a half-life at 24 h [5] of 20 h and a Cmax at 24 h (in vivo [7]) of 191 ng/mL. It also gave a k el at 24 h [8] of 9.78e-06 s⁻¹, an MRT at 24 h [11] of 9.58 h and a Tmax at 24 h (in vivo [12]) of 3.5 h.

With Cc1nc(N[C@H](C)c2cccc(C(F)F)c2F)c2cc3c(cc2n1)OCC[C@H]1CN(C(=O)C2COC2)CCN31 the AUC at 24 h (in vivo [1]) was 1610 ng·h/mL, the half-life at 24 h [5] was 1.36 h and the Cmax at 24 h (in vivo [7]) was 885 ng/mL. For the same compound, the k el at 24 h [8] was 0.000142 s⁻¹, the MRT at 24 h [11] was 1.7 h and the Tmax at 24 h (in vivo [12]) was 0.38 h.

For Cc1nc(N[C@H](C)c2cccc(C(F)F)c2F)c2cc3c(cc2n1)OCC[C@H]1CN(CC#N)CCN31, the pIC50 [13] was 7.15.

From ChEMBL document CHEMBL5104195, “Discovery of Orally Bioavailable SOS1 Inhibitors for Suppressing KRAS-Driven Carcinoma” (J Med Chem, 2022)
